± gives the standard deviation of the averaged measurements.
How the values were obtained:
Assay in all cases: level (log10 ratio to DMSO vehicle control); higher = higher biomarker level / cell amount than vehicle control
[1] = compound: O=S(=O)(O)CCC(F)(F)C(F)(F)C(F)(F)C(F)(F)C(F)(F)C(F)(F)C(F)(F)C(F)(F)F [8:2 Fluorotelomer sulfonic acid] (in DMSO)
Experimental: (§1)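 BioMAP Diversity Plus panel of 12 human primary cell co-culture systems (3C, 4H, LPS, SAg, BT, BF4T, BE3C, CASM3C, HDF3CGF, KF3CT, MyoF, Mphg). Compounds were added 1 h before stimulation and left for 24 h (MyoF 48 h; BT 72 h for soluble read-outs or 6 d for IgG). Biomarkers were read by ELISA, cytotoxicity by SRB, PBMC viability and proliferation by Alamar Blue. Each well value was divided by the mean of 8 DMSO control wells on the same plate and log10 transformed; duplicate blinded samples were tested at 4 concentrations.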

Octafluoroadipic acid = compound: O=C(O)C(F)(F)C(F)(F)C(F)(F)C(F)(F)C(=O)O [Octafluoroadipic acid] (in DMSO)
Experimental: as §1

Perfluorononanoic acid = compound: O=C(O)C(F)(F)C(F)(F)C(F)(F)C(F)(F)C(F)(F)C(F)(F)C(F)(F)C(F)(F)F [Perfluorononanoic acid] (in DMSO)
Experimental: as §1

Perfluoroundecanoic acid = compound: O=C(O)C(F)(F)C(F)(F)C(F)(F)C(F)(F)C(F)(F)C(F)(F)C(F)(F)C(F)(F)C(F)(F)C(F)(F)F [Perfluoroundecanoic acid] (in DMSO); conditions: 6700 nM
Experimental: as §1

[2] = compound: O=C(O)C=C(C(F)(F)F)C(F)(F)F [3,3-Bis(trifluoromethyl)-2-propenoic acid] (in DMSO)
Experimental: as §1

[3] = compound: OCC(F)(F)OC(F)(F)C(F)(F)OC(F)(F)C(F)(F)OC(F)(F)CO [1H,1H,11H,11H-Perfluorotetraethylene glycol] (in DMSO)
Experimental: as §1

[4] = compound: O=C(O)C(F)(F)C(F)(F)C(F)(F)OC(F)(F)F [Perfluoro(4-methoxybutanoic) acid] (in DMSO)
Experimental: as §1

## BF4T:SRB
[1]; 6700 nM
  level (log10): 0.0035 ± 0.015
[1]; 20000 nM
  level (log10): -0.002 ± 0.013
[1]; 60000 nM
  level (log10): -0.0005 ± 0.0078
Octafluoroadipic acid; 6700 nM
  level (log10): -0.0145 ± 0.0064
Octafluoroadipic acid; 20000 nM
  level (log10): -0.011 ± 0.0071
Octafluoroadipic acid; 60000 nM
  level (log10): -0.0065 ± 0.0035
Perfluorononanoic acid; 6700 nM
  level (log10): -0.002 ± 0.0014
Perfluorononanoic acid; 20000 nM
  level (log10): -0.028 ± 0.0014
Perfluoroundecanoic acid
  level (log10): -0.0115 ± 0.0035
[2]; 6700 nM
  level (log10): 0.0015 ± 0.005
[2]; 20000 nM
  level (log10): -0.006 ± 0.011
[2]; 60000 nM
  level (log10): 0.0045 ± 0.0092
[3]; 6700 nM
  level (log10): -0.0035 ± 0.0021
[3]; 20000 nM
  level (log10): -0.0065 ± 0.0021
[3]; 60000 nM
  level (log10): -0.0345 ± 0.033
[4]; 6700 nM
  level (log10): -0.0105 ± 0.00071
[4]; 20000 nM
  level (log10): -0.0135 ± 0.0064
[4]; 60000 nM
  level (log10): -0.0105 ± 0.0035

## BT:sTNF-alpha
[1]; 6700 nM
  level (log10): 0.006 ± 0.095
[1]; 20000 nM
  level (log10): 0 ± 0.0071
[1]; 60000 nM
  level (log10): 0.009 ± 0.034
Octafluoroadipic acid; 6700 nM
  level (log10): 0.0535 ± 0.17
Octafluoroadipic acid; 20000 nM
  level (log10): 0.028 ± 0.17
Octafluoroadipic acid; 60000 nM
  level (log10): 0.116 ± 0.02
Perfluorononanoic acid; 6700 nM
  level (log10): -0.002 ± 0.038
Perfluorononanoic acid; 20000 nM
  level (log10): 0.0115 ± 0.073
Perfluoroundecanoic acid
  level (log10): 0.06 ± 0.02
[2]; 6700 nM
  level (log10): -0.047 ± 0.034
[2]; 20000 nM
  level (log10): -0.184 ± 0.04
[2]; 60000 nM
  level (log10): -0.637 ± 0.093
[3]; 6700 nM
  level (log10): 0.0045 ± 0.066
[3]; 20000 nM
  level (log10): -0.033 ± 0.09
[3]; 60000 nM
  level (log10): -0.234 ± 0.044
[4]; 6700 nM
  level (log10): -0.028 ± 0.0042
[4]; 20000 nM
  level (log10): -0.0245 ± 0.046
[4]; 60000 nM
  level (log10): 0.0445 ± 0.016

## BE3C:IL-1alpha
[1]; 6700 nM
  level (log10): 0.016 ± 0.027
[1]; 20000 nM
  level (log10): -0.0055 ± 0.0064
[1]; 60000 nM
  level (log10): -0.043 ± 0.037
Octafluoroadipic acid; 6700 nM
  level (log10): 0.0155 ± 0.0064
Octafluoroadipic acid; 20000 nM
  level (log10): 0.009 ± 0.023
Octafluoroadipic acid; 60000 nM
  level (log10): -0.031 ± 0.0028
Perfluorononanoic acid; 6700 nM
  level (log10): -0.032 ± 0.024
Perfluorononanoic acid; 20000 nM
  level (log10): -0.0625 ± 0.023
Perfluoroundecanoic acid
  level (log10): -0.069 ± 0.0042
[2]; 6700 nM
  level (log10): 0.012 ± 0.02
[2]; 20000 nM
  level (log10): 0.0005 ± 0.0092
[2]; 60000 nM
  level (log10): 0.001 ± 0.023
[3]; 6700 nM
  level (log10): -0.001 ± 0.024
[3]; 20000 nM
  level (log10): -0.0185 ± 0.0035
[3]; 60000 nM
  level (log10): -0.0065 ± 0.057
[4]; 6700 nM
  level (log10): -0.0045 ± 0.037
[4]; 20000 nM
  level (log10): 0.014 ± 0.0042
[4]; 60000 nM
  level (log10): 0.0245 ± 0.0021

## LPS:CD106/VCAM-1
[1]; 6700 nM
  level (log10): -0.0135 ± 0.073
[1]; 20000 nM
  level (log10): -0.021 ± 0.065
[1]; 60000 nM
  level (log10): -0.0535 ± 0.077
Octafluoroadipic acid; 6700 nM
  level (log10): -0.0235 ± 0.037
Octafluoroadipic acid; 20000 nM
  level (log10): -0.0175 ± 0.025
Octafluoroadipic acid; 60000 nM
  level (log10): -0.017 ± 0.048
Perfluorononanoic acid; 6700 nM
  level (log10): -0.017 ± 0.014
Perfluorononanoic acid; 20000 nM
  level (log10): -0.002 ± 0.0057
Perfluoroundecanoic acid
  level (log10): -0.0095 ± 0.043
[2]; 6700 nM
  level (log10): -0.106 ± 0.021
[2]; 20000 nM
  level (log10): -0.141 ± 0.018
[2]; 60000 nM
  level (log10): -0.244 ± 0.069
[3]; 6700 nM
  level (log10): 0.001 ± 0.045
[3]; 20000 nM
  level (log10): -0.002 ± 0.034
[3]; 60000 nM
  level (log10): -0.041 ± 0.052
[4]; 6700 nM
  level (log10): -0.019 ± 0.02
[4]; 20000 nM
  level (log10): -0.005 ± 0.025
[4]; 60000 nM
  level (log10): -0.0155 ± 0.019

## BF4T:CCL2/MCP-1
[1]; 6700 nM
  level (log10): 0.037 ± 0.023
[1]; 20000 nM
  level (log10): -0.019 ± 0.0028
[1]; 60000 nM
  level (log10): -0.002 ± 0.034
Octafluoroadipic acid; 6700 nM
  level (log10): 0.0145 ± 0.012
Octafluoroadipic acid; 20000 nM
  level (log10): -0.011
Octafluoroadipic acid; 60000 nM
  level (log10): 0.0225 ± 0.057
Perfluorononanoic acid; 6700 nM
  level (log10): -0.0115 ± 0.029
Perfluorononanoic acid; 20000 nM
  level (log10): -0.154 ± 0.026
Perfluoroundecanoic acid
  level (log10): -0.009 ± 0.023
[2]; 6700 nM
  level (log10): 0.0005 ± 0.0021
[2]; 20000 nM
  level (log10): -0.052 ± 0.031
[2]; 60000 nM
  level (log10): -0.0635 ± 0.0064
[3]; 6700 nM
  level (log10): -0.0295 ± 0.012
[3]; 20000 nM
  level (log10): -0.119 ± 0.016
[3]; 60000 nM
  level (log10): -0.227 ± 0.013
[4]; 6700 nM
  level (log10): 0.031 ± 0.031
[4]; 20000 nM
  level (log10): 0.007 ± 0.054
[4]; 60000 nM
  level (log10): 0.035 ± 0.028

## 4H:VEGFR2
[1]; 6700 nM
  level (log10): -0.0345 ± 0.12
[1]; 20000 nM
  level (log10): 0.003 ± 0.0014
[1]; 60000 nM
  level (log10): -0.026 ± 0.0028
Octafluoroadipic acid; 6700 nM
  level (log10): 0.0205 ± 0.029
Octafluoroadipic acid; 20000 nM
  level (log10): 0.0085 ± 0.05
Octafluoroadipic acid; 60000 nM
  level (log10): 0.0155 ± 0.042
Perfluorononanoic acid; 6700 nM
  level (log10): -0.0565 ± 0.039
Perfluorononanoic acid; 20000 nM
  level (log10): -0.033 ± 0.0099
Perfluoroundecanoic acid
  level (log10): -0.008 ± 0.0085
[2]; 6700 nM
  level (log10): -0.02
[2]; 20000 nM
  level (log10): -0.019 ± 0.0099
[2]; 60000 nM
  level (log10): -0.04 ± 0.0057
[3]; 6700 nM
  level (log10): 0.008 ± 0.042
[3]; 20000 nM
  level (log10): 0.003 ± 0.05
[3]; 60000 nM
  level (log10): 0.07 ± 0.051
[4]; 6700 nM
  level (log10): 0.009 ± 0.033
[4]; 20000 nM
  level (log10): 0.019 ± 0.038
[4]; 60000 nM
  level (log10): 0.0075 ± 0.011

## LPS:CD141/Thrombomodulin
[1]; 6700 nM
  level (log10): 0.007 ± 0.11
[1]; 20000 nM
  level (log10): 0.0505 ± 0.071
[1]; 60000 nM
  level (log10): 0.205 ± 0.016
Octafluoroadipic acid; 6700 nM
  level (log10): -0.014 ± 0.0014
Octafluoroadipic acid; 20000 nM
  level (log10): -0.0135 ± 0.028
Octafluoroadipic acid; 60000 nM
  level (log10): 0.006 ± 0.014
Perfluorononanoic acid; 6700 nM
  level (log10): -0.018 ± 0.048
Perfluorononanoic acid; 20000 nM
  level (log10): -0.018 ± 0.017
Perfluoroundecanoic acid
  level (log10): 0.018 ± 0.016
[2]; 6700 nM
  level (log10): -0.0835 ± 0.093
[2]; 20000 nM
  level (log10): -0.091 ± 0.14
[2]; 60000 nM
  level (log10): -0.026 ± 0.12
[3]; 6700 nM
  level (log10): 0.0725 ± 0.076
[3]; 20000 nM
  level (log10): 0.09 ± 0.067
[3]; 60000 nM
  level (log10): 0.157 ± 0.056
[4]; 6700 nM
  level (log10): -0.028 ± 0.023
[4]; 20000 nM
  level (log10): -0.0285 ± 0.052
[4]; 60000 nM
  level (log10): -0.0195 ± 0.053

Source: the supplement of paper PMC10331698
